Measured values published in patent publication US10675253B2, “Methods of diagnosis and treatment involving nitrite” (Board of Supervisors of Louisiana State University and …, priority 2017, dated 2020).
Like-named read-outs stand apart in the source and are kept apart here.

Legend:
[1] = nitrite reduction to NO facilitated by ascorbic acid, DADS, or DATS; settings: FIGS. 4, 6; over one hour
Excerpt: FIG. 4 is a line graph of experiments showing nitrite reduction to NO facilitated by ascorbic acid, DADS, or DATS;
FIG. 5 is a pair of line graphs of two experiments showing nitrite reduction to NO facilitated by ascorbic acid over one hour;
FIG. 6 is a pair of line graphs of two experiments showing nitrite reduction to NO facilitated by DADS over one hour;
FIG. 7 is a pair of line graphs of two experiments showing nitrite reduction to NO facilitated by DATS over one hour;
Turning to FIGS. 1-7, an embodiment of the disclosed invention, including a method of treatment of various conditions by increasing nitrite conversion to nitric oxide via DADS is described. This embodiment of the disclosed invention describes chemical reactions that may be useful for stimulating nitrite conversion to nitric oxide, namely diallyl disulfide (DADS) reduction of nitrite to nitric oxide. […] This would be useful for various purposes including unique ways to stimulate nitrite reduction to nitric oxide within an organism.
While it has been shown that increasing NO levels can be therapeutic for a number of conditions, the biochemical mechanism of nitrite reduction to NO, and thereby increasing NO levels, is poorly understood. Some agents can facilitate such reduction, such as ascorbic acid, but do so weakly. […]

[2] = ascorbic acid as comparison agent; general statement; cited from earlier work
xanthine oxidase (XO) = xanthine oxidase (XO) (Homo sapiens, UniProt P47989); experiment: XO dependent nitrite reduction to NO / XO activity; type: biochemical
Chain of xanthine oxidase (XO) (P47989 whole entry, species assumed): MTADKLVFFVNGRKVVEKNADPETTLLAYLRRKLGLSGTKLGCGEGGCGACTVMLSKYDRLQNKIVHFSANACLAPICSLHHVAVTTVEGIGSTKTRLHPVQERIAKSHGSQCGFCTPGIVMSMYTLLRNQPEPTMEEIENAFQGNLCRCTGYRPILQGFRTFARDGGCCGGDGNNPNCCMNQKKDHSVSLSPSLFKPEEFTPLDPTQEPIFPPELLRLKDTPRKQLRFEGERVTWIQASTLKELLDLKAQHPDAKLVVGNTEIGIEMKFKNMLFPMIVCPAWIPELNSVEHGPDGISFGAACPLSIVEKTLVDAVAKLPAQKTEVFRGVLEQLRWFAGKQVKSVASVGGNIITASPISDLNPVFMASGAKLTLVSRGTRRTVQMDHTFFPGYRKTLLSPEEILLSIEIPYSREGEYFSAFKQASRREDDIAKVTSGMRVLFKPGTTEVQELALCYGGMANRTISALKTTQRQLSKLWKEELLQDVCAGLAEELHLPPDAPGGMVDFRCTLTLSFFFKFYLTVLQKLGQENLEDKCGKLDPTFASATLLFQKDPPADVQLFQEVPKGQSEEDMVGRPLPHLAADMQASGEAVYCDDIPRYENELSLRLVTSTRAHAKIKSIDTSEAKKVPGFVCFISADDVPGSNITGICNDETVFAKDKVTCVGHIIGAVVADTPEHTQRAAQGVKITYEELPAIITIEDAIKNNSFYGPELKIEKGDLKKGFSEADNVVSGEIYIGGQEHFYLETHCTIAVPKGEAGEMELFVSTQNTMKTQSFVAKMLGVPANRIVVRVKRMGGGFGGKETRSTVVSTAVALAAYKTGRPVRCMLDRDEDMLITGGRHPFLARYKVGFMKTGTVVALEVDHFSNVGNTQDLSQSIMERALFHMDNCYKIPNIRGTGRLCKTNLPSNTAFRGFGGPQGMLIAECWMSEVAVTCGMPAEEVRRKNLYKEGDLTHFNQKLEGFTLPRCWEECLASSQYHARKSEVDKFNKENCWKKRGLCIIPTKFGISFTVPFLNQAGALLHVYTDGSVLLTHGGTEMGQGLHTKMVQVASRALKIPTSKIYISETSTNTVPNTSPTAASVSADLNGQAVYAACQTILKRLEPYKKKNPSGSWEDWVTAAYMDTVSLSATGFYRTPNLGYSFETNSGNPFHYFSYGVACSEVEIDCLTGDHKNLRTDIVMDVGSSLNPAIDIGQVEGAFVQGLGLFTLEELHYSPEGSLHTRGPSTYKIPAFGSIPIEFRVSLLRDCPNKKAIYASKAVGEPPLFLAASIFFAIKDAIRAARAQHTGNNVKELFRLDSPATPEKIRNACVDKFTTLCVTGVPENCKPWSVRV
Excerpt: Referring to FIGS. 1-8, a further embodiment of the disclosed invention, including a method of treatment of various conditions by increasing XO associated nitrite conversion to nitric oxide is described. This embodiment of the disclosed invention describes chemical reactions that may be useful for stimulating xanthine oxidase (XO) to increase nitrite conversion to nitric oxide, namely diallyl trisulfide (DATS) stimulation of XO reduction of nitrite to nitric oxide. This would be useful for various purposes including unique ways to stimulate nitrite reduction to nitric oxide within an organism.
DATS may therefore be administered alone, or for example, with nitrite and/or XO, as a therapeutic for known NO mediated conditions, including inflammation, wound healing, and infections. DATS can be administered in a variety of methods, including nanoformulation compounds, especially for creams or lotions.

Compound: C=CCSSCC=C [DADS, diallyl disulfide]
- nitrite reduction to NO [1]: selectively stimulate nitrite reduction to NO

Compound: O=C1O[C@H]([C@@H](O)CO)C(O)=C1O [ascorbic acid]
- nitrite reduction to NO [2]: weakly

Compound: C=CCSSSCC=C [DATS, diallyl trisulfide]
- XO dependent nitrite reduction to NO (xanthine oxidase (XO)): selectively increases XO dependent nitrite reduction to NO
- XO activity & NO production (xanthine oxidase (XO); FIG. 8): differentially affects XO activity & NO production
